Laboratory results taken from the NIST ThermoML archive (doi:10.1021/je050209y).
± gives the expanded uncertainty stated by the source.

Assays:
[1] = xn = mol fraction of the nth substance listed; conditions: 298.15 K, 101.33 kPa, Liquid
[2] = 298.15 K; 101.33 kPa; Liquid

CN(C)C=O [dimethylformamide] + O
[1]
Conditions | mass density [kg/m3] | viscosity [mPa·s]
x1 = 0.05 | 996 ± 0.7 | 1.31 ± 0.021
x1 = 0.1001 | 996.8 ± 0.7 | 1.728 ± 0.027
x1 = 0.2 | 995.1 ± 0.7 | 2.346 ± 0.036
x1 = 0.299 | 991.6 ± 0.7 | 2.491 ± 0.038
x1 = 0.3998 | 984.4 ± 0.8 | 2.273 ± 0.035
x1 = 0.4997 | 975.9 ± 0.8 | 1.878 ± 0.029
x1 = 0.5993 | 968.4 ± 0.9 | 1.532 ± 0.024
x1 = 0.6995 | 960.7 ± 1 | 1.243 ± 0.02
x1 = 0.8 | 954.9 ± 1 | 1.045 ± 0.017
x1 = 0.8991 | 949.1 ± 1.1 | 0.901 ± 0.015
x1 = 0.9488 | 946.9 ± 1.1 | 0.843 ± 0.014

CNC=O [N-methylformamide] + CN(C)C=O
[1]
Conditions | mass density [kg/m3] | viscosity [mPa·s]
x2 = 0.0497 | 995.4 ± 0.7 | 1.618 ± 0.025
x2 = 0.0997 | 991.9 ± 0.7 | 1.524 ± 0.024
x2 = 0.2002 | 985.5 ± 0.8 | 1.373 ± 0.022
x2 = 0.2999 | 979.4 ± 0.8 | 1.274 ± 0.02
x2 = 0.4001 | 973.6 ± 0.9 | 1.171 ± 0.019
x2 = 0.4999 | 968.1 ± 0.9 | 1.085 ± 0.017
x2 = 0.5999 | 963 ± 0.9 | 1.006 ± 0.016
x2 = 0.699 | 958 ± 1 | 0.947 ± 0.015
x2 = 0.8001 | 953.2 ± 1 | 0.897 ± 0.015
x2 = 0.9001 | 948.6 ± 1.1 | 0.855 ± 0.014
x2 = 0.95 | 946.4 ± 1.1 | 0.84 ± 0.014

CN(C)C=O [dimethylformamide]
[2]
Conditions | mass density [kg/m3] | viscosity [mPa·s]
– | 944.2 ± 1.1 | 0.799 ± 0.013

CNC=O [N-methylformamide]
[2]
Conditions | mass density [kg/m3] | viscosity [mPa·s]
– | 998.8 ± 0.7 | 1.681 ± 0.026

CNC=O [N-methylformamide] + O
[1]
Conditions | mass density [kg/m3] | viscosity [mPa·s]
x1 = 0.0504 | 1003.2 ± 0.7 | 1.174 ± 0.019
x1 = 0.1001 | 1008.9 ± 0.7 | 1.422 ± 0.022
x1 = 0.2 | 1014.6 ± 0.8 | 1.793 ± 0.028
x1 = 0.2998 | 1016.3 ± 0.8 | 2.001 ± 0.031
x1 = 0.4002 | 1015.1 ± 0.8 | 2.067 ± 0.032
x1 = 0.4996 | 1012.2 ± 0.7 | 2.04 ± 0.031
x1 = 0.5996 | 1009.4 ± 0.7 | 1.961 ± 0.03
x1 = 0.6994 | 1006.1 ± 0.7 | 1.878 ± 0.029
x1 = 0.7999 | 1003.7 ± 0.7 | 1.794 ± 0.028
x1 = 0.8983 | 1000.9 ± 0.7 | 1.734 ± 0.027
x1 = 0.9498 | 999.7 ± 0.7 | 1.707 ± 0.027
